# Assays:
# Homo sapiens = species on record: Homo sapiens; assay: fCmin in HIV1-infected patient at 600 mg, BID measured on week 2 by HPLC; details: in vivo
# [1] = system: Human immunodeficiency virus 1; assay: Antiviral activity against HIV1 infected in human; format: functional
# [2] = Inhibitory quotient, ratio of Cmin to IC90 for HIV1 infected in patient in presence of human serum at 600 mg, BID
# [3] = system: Human immunodeficiency virus 1; assay: Antiviral activity against HIV1 infected in human in presence of human serum; format: functional
# [4] = system: Human immunodeficiency virus; assay: Antiviral activity in HIV infected in patient having Cmin-corrected GIQ value < 75 assessed as viral copies; format: functional
# [5] = Inhibitory quotient, ratio of fCmin to IC90 for HIV1 infected in patient at 600 mg, BID
# [6] = system: Human immunodeficiency virus; assay: Antiviral activity in HIV infected in patient having Cmin-corrected GIQ value > 75 assessed as viral copies; format: functional
compound,measurement,setting,value
CC(C)CN(C[C@@H](O)[C@H](Cc1ccccc1)NC(=O)O[C@H]1CCOC1)S(=O)(=O)c1ccc(N)cc1 [AMPRENAVIR],fCmin,Homo sapiens,177 ng/mL
same,IC90,[1],0.0578 µg/mL
same,Ratio,[2],3.6
same,IC90,[3],0.453 µg/mL
same,log10cfu,[4],0.19 log10 copies/ml
same,Ratio,[5],2.5
same,log10cfu,[6],1.23 log10 copies/ml

# — ChEMBL document CHEMBL1255319, “Predictive values of the human immunodeficiency virus phenotype and genotype and of amprenavir and lopinavir inhibitory quotients in heavily pretreated patients on a ritonavir-boosted dual-protease-inhibitor regimen” (Antimicrob Agents Chemother, 2008)
